Target: T1, FLAP (Homo sapiens, UniProt P20292)
T1 construct: A 100,000×g pellet from human leukocyte 10,000×g supernatants (1) is the source of FLAP; from tissue; host or cells: human leukocytes (100,000 x g membrane pellet)
T1 sequence (P20292 1-161): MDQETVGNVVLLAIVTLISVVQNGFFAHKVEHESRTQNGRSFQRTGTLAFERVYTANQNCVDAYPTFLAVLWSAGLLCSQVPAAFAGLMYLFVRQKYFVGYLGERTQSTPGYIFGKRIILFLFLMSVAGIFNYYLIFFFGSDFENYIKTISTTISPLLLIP
Test: FLAP Binding Assay
Conditions: competition with radiolabelled Compound A; 100,000×g pellet membranes from human leukocyte; 20 minute incubation at room temperature
Experimental: A 100,000×g pellet from human leukocyte 10,000×g supernatants (1) is the source of FLAP. The 100,000×g pellet membranes were resuspended in Tris-Tween assay buffer (100 mM Tris HCl pH 7.4, 140 mM NaCl, 2 mM EDTA, 0.5 mM dithiothreitol, 5% glycerol, 0.05% Tween 20) to yield a final protein concentration of 50 μg to 150 μg/ml. Aliquots (100 μl) of membrane suspension were added to 12 mm×75 mm polypropylene tubes containing 100 μl Tris-Tween assay buffer, 30,000 cpm of Compound A in 5 μl MeOH:assay buffer (1:1), and 2 μl dimethyl sulfoxide or competitor (i.e., the compound to be tested) in dimethyl sulfoxide. Compound B (10 μM final concentration) was used to determine non-specific binding. After a 20 minute incubation at room temperature, tube contents were diluted to 4 ml with cold 0.1 M Tris HCl pH 7.4, 0.05% Tween 20 wash buffer and the membranes were collected by filtration of GFB filters presoaked in the wash buffer. Tubes and filters were rinsed with 2×4 ml aliquots of cold wash buffer. Filters were transferred to 12 mm×3.5 mm polystyrene tubes for determination of radioactivity by gamma-scintillation counting.
Specific binding is defined as total binding minus non-specific binding. Total binding was Compound A bound to membranes in the absence of competitor; non-specific binding was Compound A bound in the presence of 10 uM Compound B. Preparation of Compound A is described in reference 1, below. The IC50 values were obtained by computer analysis (see reference 2, below) of the experimental data.

SMILES | IC50 [nM]
COc1cncc(-c2ccc(C(C)(c3ccc(-c4noc(C5(N)CC5)n4)cn3)C(C)C)cc2)c1 (stereo not shown) [Example 2b] | 3.6
Cn1nnc(-c2ccc(C(c3ccc(OCc4ccccn4)cc3)C(C)(C)C)nc2)n1 (stereo not shown) [Example 9b, 2-{2,2-dimethyl-1-[4-(pyridin-2-ylmethoxy)phenyl]propyl}-5-(2-methyl-2H-tetrazol-5-yl)pyridine] | 14
CC(C)C(C)(c1ccc(OCc2nccs2)cc1)c1ccc(-c2noc(C(C)(C)O)n2)cn1 (stereo not shown) [Example 10Ca, 2-[3-(6-{1,2-dimethyl-1-[4-(1,3-thiazol-2-ylmethoxy)phenyl]propyl}pyridin-3-yl)-1,2,4-oxadiazol-5-yl]propan-2-ol] | 2.9
COc1cncc(-c2ccc(C(C)(c3ccc(-c4ccc(C(F)(F)F)nn4)cn3)C(C)C)cc2)c1 (stereo not shown) [Example 4Ad, 3-(6-{1-[4-(5-methoxypyridin-3-yl)phenyl]-1,2-dimethylpropyl}pyridin-3-yl)-6-(trifluoromethyl)pyridazine] | 1.4
CC(C)C(C)(c1ccc(-c2cncc(OCc3ccccc3)c2)cc1)c1ccc(-c2ccc(C(F)(F)F)nn2)cn1 (stereo not shown) [Example 6Da, 3-[6-(1-{4-[5-(benzyloxy)pyridin-3-yl]phenyl}-1,2-dimethylpropyl)pyridin-3-yl]-6-(trifluoromethyl)pyridazine] | 2.4
CC(C)C(C)(c1ccc(-c2cnc(N)nc2)cc1)c1ccc(C(C)(C)O)cn1 (stereo not shown) [Example 7Ad, 2-(6-{1-[4-(2-aminopyrimidin-5-yl)phenyl]-1,2-dimethylpropyl}pyridin-3-yl)propan-2-ol] | 1.2
COc1cncc(-c2ccc(C(C)(c3ccc(-c4noc(C(C)(C)O)n4)cn3)C(C)C)cc2)c1 (stereo not shown) [Example 1Ac, 2-[3-(6-{1-[4-(5-methoxypyridin-3-yl)phenyl]-1,2-dimethylpropyl}pyridin-3-yl)-1,2,4-oxadiazol-5-yl]propan-2-ol] | 2.1
CC(C)(C)C(c1ccc(OCc2ccccn2)cc1)c1ccc(-c2nnc(N)o2)cn1 (stereo not shown) [Example 8a, 5-(6-{2,2-dimethyl-1-[4-(pyridin-2-ylmethoxy)phenyl]pronyl}pyridin-3-yl)-1,3,4-oxadiazol-2-amine] | 5.8
CC(C)C(C)(c1ccc(-c2ccc(N)nn2)cc1)c1ccc(C(C)(C)O)cn1 (stereo not shown) [Example 7Bd, 2-(6-(1-[4-(6-aminopyridazin-3-yl)phenyl]-1,2-dimethylpropyl)pyridin-3-yl)propan-2-ol] | 2.3
COc1cncc(-c2ccc(C(C)(c3ccc(-c4ccc(C(C)(C)O)nn4)cn3)C(C)C)cc2)c1 (stereo not shown) [Example 4d, 2-[6-(6-{1-[4-(5-methoxypyridin-3-yl)phenyl]-1,2-dimethylpropyl}pyridin-3-yl)pyridazin-3-yl]propan-2-ol] | 1.1
CC(C)C(C)(c1ccc(-c2cncc(OCF)c2)cc1)c1ccc(-c2ccc(C(F)(F)F)nn2)cn1 (stereo not shown) [Example 6c, 3-[6-(1-{4-[5-(fluoromethoxy)pyridin-3-yl]phenyl}-1,2-dimethylpropyl)pyridin-3-yl]-6-(trifluoromethyl)pyridazine] | 2.8

Stronger by IC50, values ahead:

IC50 [nM] | SMILES
0.7 | COc1cncc(-c2ccc(C(C)(c3ccc(-c4ccc(S(C)(=O)=O)nn4)cn3)C(C)C)cc2)c1 (stereo not shown) [Example 5a, 3-(6-{1-[4-(5-methoxypyridin-3-yl)phenyl]-1,2-dimethylpropyl}pyridin-3-yl)-6-(methylsulfonyl)pyridazine]
0.7 | COC(=O)c1ccc(-c2ccc(C(C)(c3ccc(OCc4ccccn4)cc3)C(C)C)nc2)nn1 (stereo not shown) [Example 10Ah, methyl 6-(6-{1,2-dimethyl-1-[4-(pyridin-2-ylmethoxy)phenyl]propyl}pyridin-3-yl)pyridazine-3-carboxylate]
0.7 | CC(C)C(C)(c1ccc(OCc2ccccn2)cc1)c1ccc(-c2ccc(C(C)(C)O)nn2)cn1 (stereo not shown) [Example 10Aj, 2-[6-(6-{1,2-dimethyl-1-[4-(pyridin-2-ylmethoxy)phenyl]propyl}pyridin-3-yl)pyridazin-3-yl]propan-2-ol]
0.6 | CC(C)C(C)(c1ccc(-c2ccc(N)nn2)cc1)c1ccc(-c2ccc(C(C)(C)O)nn2)cn1 (stereo not shown) [Example 4g, 2-[6-(6-{1-[4-(6-aminopyridazin-3-yl)phenyl]-1,2-dimethylpropyl}pyridin-3-yl)pyridazin-3-yl]propan-2-ol]
0.5 | CC(C)C(C)(c1ccc(-c2cnc(N)nc2)cc1)c1ccc(-c2ccc(C(C)(C)O)nn2)cn1 (stereo not shown) [Example 4f, 2-[6-(6-{1-[4-(2-aminopyrimidin-5-yl)phenyl]-1,2-dimethylpropyl}pyridin-3-yl)pyridazin-3-yl]propan-2-ol]
